# Measurements: publication PMC7044277 (Nature Communications, 2020)
# “And” between values parts separate entries of the source, which are not always exact repeats. Equal values may be shown once.
# How the values were obtained:
# Format in all cases: cell-based
# 320 non-olfactory GPCRs [1] = target: T1, 320 non-olfactory GPCRs (Homo sapiens, UniProt Q86SQ4)
# T1 construct: expressed in transfected cells; host or cells: HTLA cells
# 320 non-olfactory GPCRs [2] = target: T2, 320 non-olfactory GPCRs (Homo sapiens, UniProt P32249)
# T2 construct: expressed in transfected cells; host or cells: HTLA cells
# T2 sequence (P32249 whole entry): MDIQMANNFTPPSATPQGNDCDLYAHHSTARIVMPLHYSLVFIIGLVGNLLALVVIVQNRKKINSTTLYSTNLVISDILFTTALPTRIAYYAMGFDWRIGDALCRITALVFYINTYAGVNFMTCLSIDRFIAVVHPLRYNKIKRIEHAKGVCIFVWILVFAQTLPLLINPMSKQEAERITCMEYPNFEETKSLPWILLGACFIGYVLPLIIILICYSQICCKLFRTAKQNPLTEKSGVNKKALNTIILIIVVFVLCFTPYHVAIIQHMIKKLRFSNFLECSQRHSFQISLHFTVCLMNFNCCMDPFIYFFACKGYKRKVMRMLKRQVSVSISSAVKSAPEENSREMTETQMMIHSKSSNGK
# 320 non-olfactory GPCRs [3] = target: 320 non-olfactory GPCRs (Homo sapiens, UniProt Q15743); settings: receptor GPR68 no V2 Tail; replicate values, Fig_4g
# Chain of 320 non-olfactory GPCRs (Homo sapiens, UniProt Q15743) (Q15743 whole entry): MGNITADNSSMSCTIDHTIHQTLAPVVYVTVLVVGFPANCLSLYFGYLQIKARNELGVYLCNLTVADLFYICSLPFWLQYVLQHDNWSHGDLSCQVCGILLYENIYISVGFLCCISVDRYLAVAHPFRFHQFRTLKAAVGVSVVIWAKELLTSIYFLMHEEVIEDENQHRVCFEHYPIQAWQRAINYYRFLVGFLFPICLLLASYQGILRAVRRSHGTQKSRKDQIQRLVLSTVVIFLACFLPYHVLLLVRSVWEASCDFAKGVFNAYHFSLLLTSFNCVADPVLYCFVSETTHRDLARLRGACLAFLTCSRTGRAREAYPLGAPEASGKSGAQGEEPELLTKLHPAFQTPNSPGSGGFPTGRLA
# 320 non-olfactory GPCRs [4] = target: 320 non-olfactory GPCRs (Homo sapiens, UniProt P30411)
# Chain of 320 non-olfactory GPCRs (Homo sapiens, UniProt P30411) (P30411 whole entry): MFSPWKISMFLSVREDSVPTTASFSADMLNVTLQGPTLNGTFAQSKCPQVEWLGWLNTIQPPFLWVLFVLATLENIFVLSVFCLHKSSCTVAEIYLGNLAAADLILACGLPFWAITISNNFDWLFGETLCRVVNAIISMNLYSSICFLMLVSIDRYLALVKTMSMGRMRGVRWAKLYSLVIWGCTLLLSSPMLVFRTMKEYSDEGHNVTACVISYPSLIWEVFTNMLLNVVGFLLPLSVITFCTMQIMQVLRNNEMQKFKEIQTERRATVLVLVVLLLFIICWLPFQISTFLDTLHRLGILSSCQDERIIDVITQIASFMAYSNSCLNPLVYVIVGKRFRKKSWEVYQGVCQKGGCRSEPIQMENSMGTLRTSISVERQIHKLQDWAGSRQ
# 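For Fold of Basal in this document: compound tested at 1 µM final concentration.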
# 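For GPCRome agonism screen response in this document: fold over basal response of each receptor without drug.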
# T1 sequence (Q86SQ4 38-1221): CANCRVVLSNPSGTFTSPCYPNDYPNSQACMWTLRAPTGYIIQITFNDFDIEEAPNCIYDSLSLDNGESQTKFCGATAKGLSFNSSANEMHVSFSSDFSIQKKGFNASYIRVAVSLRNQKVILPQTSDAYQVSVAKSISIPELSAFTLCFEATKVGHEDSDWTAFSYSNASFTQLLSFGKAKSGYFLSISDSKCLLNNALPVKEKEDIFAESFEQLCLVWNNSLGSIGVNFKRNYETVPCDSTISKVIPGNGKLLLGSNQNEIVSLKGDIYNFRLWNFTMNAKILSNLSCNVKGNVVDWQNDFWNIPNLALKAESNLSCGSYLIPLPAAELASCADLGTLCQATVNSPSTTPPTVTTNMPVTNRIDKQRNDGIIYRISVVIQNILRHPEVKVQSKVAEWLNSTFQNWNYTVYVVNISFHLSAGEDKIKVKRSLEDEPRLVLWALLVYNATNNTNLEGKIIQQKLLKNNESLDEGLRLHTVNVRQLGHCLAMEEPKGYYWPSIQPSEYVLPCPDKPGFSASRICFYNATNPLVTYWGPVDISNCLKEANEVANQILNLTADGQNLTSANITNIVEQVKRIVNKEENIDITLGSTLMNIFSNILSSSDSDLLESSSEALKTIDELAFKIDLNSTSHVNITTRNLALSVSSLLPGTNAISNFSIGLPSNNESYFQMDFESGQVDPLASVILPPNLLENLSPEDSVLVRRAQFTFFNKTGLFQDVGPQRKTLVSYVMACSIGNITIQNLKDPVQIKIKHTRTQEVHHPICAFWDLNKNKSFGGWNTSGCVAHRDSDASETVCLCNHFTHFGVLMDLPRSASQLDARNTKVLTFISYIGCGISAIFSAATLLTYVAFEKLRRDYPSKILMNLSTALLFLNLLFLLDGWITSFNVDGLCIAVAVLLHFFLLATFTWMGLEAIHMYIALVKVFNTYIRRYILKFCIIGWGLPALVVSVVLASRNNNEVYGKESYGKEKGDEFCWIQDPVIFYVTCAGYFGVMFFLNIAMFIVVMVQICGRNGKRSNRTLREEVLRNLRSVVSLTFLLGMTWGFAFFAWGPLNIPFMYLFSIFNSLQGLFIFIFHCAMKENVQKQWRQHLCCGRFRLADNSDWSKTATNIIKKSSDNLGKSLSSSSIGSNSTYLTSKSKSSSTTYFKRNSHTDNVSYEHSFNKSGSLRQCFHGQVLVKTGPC
smiles,measurement,setting,value
CCOc1cccc2cc(C(C)NCC3(O)CCCCC3)oc12 (stereo not shown) [O4LE6],Fold of Basal,320 non-olfactory GPCRs [1],0.5649 and 0.8908 and 0.7066 and 0.464
same,Fold of Basal,320 non-olfactory GPCRs [2],2.191 and 1.736 and 1.097 and 1.536
same,GPCRome agonism screen response,320 non-olfactory GPCRs [3],1.945 and 0.5249 and 1.001 and 1.345
same,Fold of Basal,320 non-olfactory GPCRs [4],1.112 and 0.7321 and 0.9055 and 1.0914
